One assay deals with T1, PPAR-γ (Mus musculus, UniProt P37238).
T1 construct: endogenous in cells; host or cells: 3T3-L1 preadipocytes, differentiated for about 3 days with methyl isobutylxanthine, dexamethasone and insulin
T1 sequence (P37238 1-505): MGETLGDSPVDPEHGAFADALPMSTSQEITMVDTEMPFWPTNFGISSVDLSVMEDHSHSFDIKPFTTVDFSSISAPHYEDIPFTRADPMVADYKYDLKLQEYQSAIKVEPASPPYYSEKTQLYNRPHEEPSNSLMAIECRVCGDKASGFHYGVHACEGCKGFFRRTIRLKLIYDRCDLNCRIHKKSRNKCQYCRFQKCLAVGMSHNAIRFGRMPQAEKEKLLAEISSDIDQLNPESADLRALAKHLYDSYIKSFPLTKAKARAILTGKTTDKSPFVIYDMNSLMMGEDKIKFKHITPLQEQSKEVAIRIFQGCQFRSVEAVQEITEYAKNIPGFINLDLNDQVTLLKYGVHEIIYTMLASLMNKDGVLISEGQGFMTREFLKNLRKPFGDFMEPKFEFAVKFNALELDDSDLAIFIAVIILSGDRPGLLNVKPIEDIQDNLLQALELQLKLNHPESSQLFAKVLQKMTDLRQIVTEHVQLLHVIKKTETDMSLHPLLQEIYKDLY
Briefly: 3T3-L1 transient reporter assay (AD3T3-L1 reporter). Type of assay: cell-based, murine. The note with it: for EC50: 3T3-L1 cells, aP2 promoter luciferase reporter, 48 hours. On the procedure:
This assay is used to determine the potential of putative PPAR-γ ligands to activate the promoter/enhancer of the murine aP2 gene. 3T3-L1 preadipocytes are cultured on collagen coated plates in DMEM containing 10% Calf serum for 48 hours post-confluence. The cells are then cultured for approximately 3 days in DMEM containing 10% Fetal Bovine Serum (FBS), 0.5-mM methyl isobutylxanthine, 0.25 μM dexamethasone, and 1 μg/ml of insulin. Cells are detached from the plates with Trypsin-EDTA and resuspended in Phosphate Buffered Saline (PBS).
The reporter construct used in this assay is comprised of the —5.4 Kb 5′ flanking region of the murine aP2 gene inserted into the cloning site of the TKpGL3 luciferase vector. Transfection efficiency is controlled by co-transfection of the reference plasmid CMV-β-galactosidase. The reporter construct and the reference plasmid are transiently co-transfected into the cells by electroporation. The transfected cells are plated into collagen coated 96-well plates and cultured overnight. Cells are then incubated for 48 hours with the test compounds and then harvested. The lysates are measured for luciferase and β-galactosidase activities using the Dual-Light® luciferase kit from Tropix on a EG&G Berthold MicroLumat LB96P luminometer.

In assay [1] the test system is Ob/Ob diabetic mouse model. In words: Blood glucose measurement (Glucose Δ) in Ob/Ob diabetic mouse model. The format is in vivo. On the procedure:
Glucose is obtained 4 hours post dose via tail vein stick (5 μl whole blood) in awake, 4 hour fasted animals. Blood is drawn by capillary action into a glucose cuvette and read in a HemoCue Glucose Analyzer (Ryan Diagnostics). Blood is diluted 1:2 with saline if glucose levels are greater than 400 mg/dl (meter high range) and results multiplied by two.

Setting [2] is: 3T3-L1, maximal response relative to rosiglitazone, read-out: AD3T3-L1 Reporter Max. % Rosi (maximal response).

Like-named read-outs stand apart in the source and are kept apart here.

As for `Cc1oc(-c2ccccc2)nc1CCCC#CCC(C(=O)O)c1cccs1` (stereo not drawn) [Example 1-13, 8-(5-Methyl-2-phenyl-oxazol-4-yl)-2-thiophen-2-yl-oct-4-ynoic Acid], on PPAR-γ (setting [2]), the Emax came to 97%. Besides, the response at PPAR-γ was half-maximal at 0.303 µM (EC50).
On to `Cc1oc(-c2ccccc2)nc1CCCC#CCC(C(=O)O)n1nccn1` (stereo not drawn) [Example 1-15, 8-(5-Methyl-2-phenyl-oxazol-4-yl)-2-[1,2,3]triazol-2-yl-oct-4-ynoic Acid], for which, on PPAR-γ (setting [2]), the Emax is 103%. This compound returned an EC50 on PPAR-γ of 0.015 µM. Further, the “In VIVO Δ Glucose @ 20 mg/kg” value in assay [1] (20 mg/kg, glucose 4 hours post dose) was -258 mg/dL. Moreover, the “In VIVO % Rosiglitazone” value in assay [1] (20 mg/kg, glucose change relative to rosiglitazone) stood at 180%. Also, the “Blood glucose in Ob/Ob diabetic mouse model” value in assay [1] (Ob/Ob diabetic mouse, in 3 days at 20 mg/Kg) was “Normalized blood glucose”.
As to `Cc1oc(-c2ccccc2)nc1CCCC#CCC(C(=O)O)n1cccc1` (stereo not drawn) [Example 1-11], the Emax at PPAR-γ (3T3-L1, read-out: AD3T3-L1 Reporter Max. % Rosi (maximal response)) came out at 108%. The compound further returned an EC50 at PPAR-γ of 0.089 µM.

These data come from patent US6696474B2, “Antidiabetic agents” (Warner Lambert Co. LLC., priority 2002, dated 2004).
